Assay results: US20240139149A1, “THERAPEUTIC USES OF UROLITHIN DERIVATIVES” (Vandria SA, priority 2022, published 2024)

Key:
mouse T lymphocytes [1] = assay: Proportion of mouse T memory stem cells (Tscm); assay type: cell-based; conditions: 2 μM, 72 h
Method: T cells were isolated and stimulated as described in Example 14.
Tscm represent a subset of minimally differentiated T cells, which share a CD44^loCD62L^hi phenotype with naïve T cells, but are phenotypically distinct by expressing high levels of Sca1 (Gattinoni et al., 2009). Tscm are therefore identified as CD44^−CD62L^+Sca1^hi cells.
(§1) Flow cytometry and analysis was performed as described in Example 14.

[2] = tested on: rat model of heart failure; assay: Rat model of heart failure after myocardial infarction (LAD ligation), echocardiography; assay type: in vivo
Description: Generation of a rat model of cardiac impairment following myocardial infarction Fifty (50) Wistar male rats from Janvier Labs (France), 6-week-old (200-224 g on the day of arrival), were included in this study. Acclimatization of animals lasted at least 5 days. During the study, animals had free access to food and drinking water ad libitum.
Myocardial infarction (MI) was induced by chronic left anterior descending coronary artery (LAD) ligation performed at DO. Rats were anesthetized with an intraperitoneal (IP) injection of Medetomidine (0.5 mg/kg) and Ketamine (50 mg/kg), intubated and ventilated at 10 mL/kg tidal volume and 70-80 cycles/min. Body temperature was maintained between 36.5° C. and 37.5° C. via a thermoregulated heating pad connected to a rectal probe. A left lateral thoracotomy was carefully performed so as to expose the heart. Then, a suture was placed around the LAD (4/0 Silk, Ethicon), around 2 mm below the left atrium and close to the interventricular junction, in order to obtain infarct size (IS) near 40% of the total left ventricular (LV) area. Chest was closed, air was expelled from the rib cage to avoid pneumothorax and quick reanimation was performed using atipamezole hydrochloride (IM, 0.5 mg/mL, Zoetis). A peri-operative care of the animals was performed during the surgery: • Pre-operative care by one carprofen injection (SC, 5 mg/kg, Pfizer) and one lidocaine injection on the site of incision (SC, 4 mg/kg, Vetoquinol). • Post-operative care: 3 injections of buprenorphine (SC, 0.01 mg/kg, Axience) administered after awakening and during the first 24 hours after the surgery.
Rats underwent transthoracic echocardiographic examination in order to assess cardiac morphology and function in a noninvasively way. […]
Left ventricle (LV) function was assessed using ejection fraction (EF), calculated as follow: […]
Statistical analysis was performed with the Graphpad 6 software. […] First, differences were assessed between Sham/Vehicle and MI/Vehicle using an unpaired ttest followed by the appropriate post-hoc test. […]

human T lymphocytes = assay: Proportion of human T memory stem cells (Tscm); assay type: cell-based
Description: Human peripheral blood mononuclear cells were purified with a Ficoll-Paque (GE healthcare) gradient. T cells were enriched with EasySep Human T Cell Isolation Kit (StemCell) and activated with dynabead Human T-Activator CD3/CD28 for T Cell Expansion and Activation Kit (11131D; ThermoFisher Scientific). Cells were activated with compound 66 at the indicated concentration or DMSO. Tscm cells are identified and counted based on the expression of five different markers: CD45RA^+CCR7^HiCD62L^+CD95^+CD8^+.
Human peripheral blood mononuclear cells were purified with a Ficoll-Paque (GE healthcare) gradient. T cells were enriched with EasySep Human T Cell Isolation Kit (StemCell) and activated with dynabead Human T-Activator CD3/CD28 for T Cell Expansion and Activation Kit (11131D; ThermoFisher Scientific). Cells were activated with the 77 at 400 nM or DMSO.
Staining was performed as described in Example 15.
as §1

mouse T lymphocytes [3] = assay: Mitochondrial content (Mitotracker positive cells) in mouse T lymphocytes; assay type: cell-based; conditions: 2 μM, 72 h; for percentage of Mitotracker positive cells: DMSO 44%
Method: Splenic murine T cells were isolated from mice aged 6-20 weeks by negative selection with EasySep mouse T cell isolation kit (Stem cell) according to the manufacturer's instructions. T cell activation was initiated using CD3/CD28 activation beads (11456D; ThermoFisher Scientific) at a ratio of 25 μl dynabeads per 0.5×10^6 T-cells. Cells were activated with test compounds at 2 μM or DMSO in T cell activation Medium (RPMI (ThermoFisher Scientific) 10% FBS (South America origin), 10 mM Hepes (Sigma), 1× Non-Essential Amino Acid, 1 mM Sodium Pyruvate, 50 μM β-Mercaptoethanol, 100 U/ml penicillin, 100 μg/ml streptomycin and 2 mM Glutamax (ThermoFisher Scientific) for 72 h. For subsequent analysis, activating beads were magnetically removed prior staining.
For flow cytometric analysis of mitochondria 500 μl of Mitotracker Red (200 nM; ThermoFisher) was applied followed by surface staining.
Cell doublets and cells debris were excluded from the analysis by gating FSC-A vs FSC-H followed by SSC-A vs SSC-H dot plots and FSC-A vs SSC-A dot plots, respectively. eFluor 780 highly positive cells, i.e, dead cells, were gated out of the analysis. Data was acquired on Canto II (BD), Fortessa (BD) and Aurora (Cytek) cytometers and analyzed with FlowJo.

APTK-OVA tumors = assay: Adoptive transfer of UA-conditioned OT-1 T cells into Rag1−/− mice; assay type: in vivo, mouse; conditions: seven days after transfer into Rag1−/− mice, T cells cultured 48 hours with UA
Method: For adoptive cell transfer, purified splenic T cell from OT1 mice were isolated and activated using αCD3/αCD28 stimulation beads for 48 h. After magnetic bead removal, 1×10^6 T of activated T cell were intravenously injected into Rag1−/− recipients. To study survival of transferred T cells, stimulated OT-1 T cells were injected into mice without tumors. Subsequently, after 7 days, spleens were isolated and splenocytes were stained for the CD8+ subsets as described below. To understand antitumor immunity conferred by transferred OT-1 lymphocytes, cells were injected into mice carrying APTK-OVA tumors 10 days after subcutaneous organoid transplantation. Tumor growth was assessed as described above. Mice were kept under regular chow food for the T cell adoptive transfer experiment and sacrificed collectively when maximum tumor diameter extended 1.5 cm.
Tumors were minced and digested with Tumor & Tissue Dissociation Reagent (BD Horizon) for 30 min. The remaining organ pieces were filtered through a 70 µm cell strainer. Cells were then washed with PBS 1% BSA and 2 mM EDTA. Immune cells were enriched on a 30%/40%/75% Percoll gradient after a 1700 rpm 17 min centrifugation. Then, tumor immune filtrates or activated T cells were stained with Fixable Viability Dye-eF780 (65-0865-14; eBioscience), αCD45-FITC (30-F11; 11-0451-85; eBioscience), αCD11b-BV650 (M1/70; 56340; BD) α-CD11c-BV785 (HL3; 563735; BD), aLy6G-BV605 (53-6.7; 563005; BD), aLy6C-AF700 (HK1.4; 128024; Biolegend), aF4/80-PE (BM8; 12-4801-82, eBioscience), aPD-L1-PECy7 (MIH5; 25-5982-80, eBioscience); or with Fixable Viability Dye-eF780 (ebioscience), αCD45-BV786 (30-F11; 564225; BD), αCD4-BUV496 (GK1.5; 564667; BD), αCD8-BV605 (100744; Biolegend), aPD1-APC (J43; 17-9985-82; eBioscience), aTIM-3-PECy7 (RMT3-23; 119715; Biolegend), aCTLA4-PE (UC10-4B9; 106305; Biolegend) and aLag3-BV421 (C9B7W; 125221, Biolegend); or with Fixable Viability Dye-eF780 (eBioscience), αCD4-FITC (H129.19; 553650; BD), αCD8-APC (53-6.7; 17-0081-83; eBioscience), αCD44-AF400 (IM7; 103026; Biolegend), αCD62L-BV785 (MEL-14; 104440; Biolegend), αSca-1-PerCP-Cy5.5 (D7; 45-5981-82; eBioscience), αCD95-PE (Jo2; 554258; BD); or with Fixable Viability Dye-eF780 (eBioscience), αCD8-BV650 (53-6.7; 563234; BD), αCD4-BUV496 (GK1.5; 564667; BD), αCD127-APC (A7R34; 17-1271-82; eBioscience), αCD95-FITC (SA367H8;152605; Biolegend), αCD44-AF400 (IM7; 103026; Biolegend), αCD62L-BV785 (MEL-14; 104440; Biolegend), αSca-1-PerCP-Cy5.5 (D7; 45-5981-82; eBioscience) followed by intracellular staining of aTCF1-PE (S33-966; 564217; BD), or PGC-1α (sc-518025; D-5; santa cruz), or aCyclinD1 (MA5-28534, DCS-6; Invitrogen) with transcription factor buffer set kit (BD Biosciences). To study cytokine expression, tumor immune infiltrates were stimulated ex vivo with 20 ng/mL PMA and […] Ionomycin (Sigma) for 3 h in T cell activation medium with Brefeldin A (Biolegend). For T cell in vitro activation experiments over several days, Brefeldin A was added to the medium for the last 3 hours. Cells were then stained with Fixable Viability Dye-eF780 (eBioscience), αCD8-PeCy7 (53.6-7; 100722; Biolegend), αCD4-AF700 (GK1.5; 100429; Biolegend), and intracellular staining for cytokine assessment was performed with BD Cytofix/Cytoperm (BD) with 20 min fixation and overnight incubation with αGranzyme B-FITC (GB11; 515403; Biolegend), αIFNγ-PerCPCy5.5 (XMG1.2; 45-7311-82; eBioscience) and αTNFa-BV711 (MP6-XT22; 563944; BD). For flow cytometric analysis of mitochondria and lysosomes 500 μl of Mitotracker Red (200 nM; ThermoFisher) or Lysotracker Red DND-99 (75 nM; ThermoFisher) were applied followed by surface staining. To study changes in mitochondrial membrane potential, Mitoprobe TMRM kit (ThermoFisher) was used according to the manufacturer's instructions. Cell proliferation was assessed by CellTrace Violet (Invitrogen, C34557) at a concentration of […] according to manufacturer's instructions. […]

[4] = MI rats, 0.5 mg/kg oral gavage, Month 2, M-mode, vs MI/Vehicle

O=C1OCc2cc(O)ccc2-c2ccc(O)cc21 [compound 66, 3,9-dihydroxydibenzo[c,e]oxepin-5(7H)-one]
increase in the percentage of Tscm in CD8+ cells vs DMSO (mouse T lymphocytes [1]): 69%
percentage of Tscm in CD8+ cells (mouse T lymphocytes [1]; DMSO 16.7%): 28.2%
LV systolic dysfunction induced by MI ([2]; 0.5 mg/kg, 2 months after LAD ligation): able to prevent
ejection fraction (EF) [2, 4]: significant increases
fractional shortening (FS) [2, 4]: significant increases
Tscm proportion of CD3+ lymphocytes (human T lymphocytes; indicated concentration vs DMSO): significant increase
increase in the percentage of Mitotracker positive cells vs DMSO (mouse T lymphocytes [3]): 27.5%
percentage of Mitotracker positive cells (mouse T lymphocytes [3]): 56.1%

CN1C(=O)Cc2cc(O)ccc2-c2ccc(O)cc21 [compound 77, 3,9-dihydroxy-5-methyl-5,7-dihydro-6H-dibenzo[b,d]azepin-6-one]
increase in Tscm proportion of CD8+ lymphocytes (human T lymphocytes; 400 nM, 72 h, vs DMSO): ~3 fold
increase in the percentage of Mitotracker positive cells vs DMSO (mouse T lymphocytes [3]): 43.4%
percentage of Mitotracker positive cells (mouse T lymphocytes [3]): 63.1%

O=c1oc2cc(O)ccc2c2ccc(O)cc12 [Urolithin A]
number of engrafted CD8+ T cells (APTK-OVA tumors): significantly higher
